Data on 7 molecules can be found in patent US20160272645A1, “Heterocyclic Compounds and Methods of Use” (MEDIVATION TECHNOLOGIES, INC., priority 2013, published 2016).

The target in one assay is T1, BTK (Homo sapiens, UniProt Q06187).
T1 construct: purchased Reaction Biology Corporation
Put plainly: BTK kinase profiling, HotSpot radiometric assay (Reaction Biology). Type of assay: biochemical. The note with it: for inhibition at 0.1 µM: compound 0.1 μM, read-out: BTK @ 0.1 μM (% Inh); for inhibition at 0.1 µM / inhibition at 0.01 µM / inhibition at 1 µM: ATP 10 μM; for inhibition at 0.01 µM: compound 0.01 μM, read-out: BTK @ 0.01 μM (% Inh); for inhibition at 1 µM: compound 1 μM, read-out: BTK @ 1 μM (% Inh). How it is done: Compounds of the invention were profiled in a 10 dose IC50 panel against BTK and PI3Kδ, both provided by Reaction Biology Corporation.
(§1) BTK assay: In vitro profiling protein kinases was performed using the “HotSpot” assay platform. Briefly, specific kinase/substrate pairs along with required cofactors were prepared in reaction buffer. Compounds were prepared as 10 mM stock solutions in DMSO. Compounds were delivered into the reaction, followed 15-20 minutes later by addition of a mixture of ATP (Sigma, St. Louis Mo.) and ^33P ATP (Perkin Elmer, Waltham Mass.) to a final concentration of 10 μM. Reactions were carried out at RT for 120 min, followed by spotting of the reactions onto P81 ion exchange filter paper (Whatman Inc., Piscataway, N.J.). Unbound phosphate was removed by extensive washing of filters in 0.75% Phosphoric acid. […] ICso values and curve fits were obtained using Prism (GraphPad Software). Buffer Conditions: 20 mM Hepes (pH 7.5), 10 mM MgCl2, 1 mM EGTA, 0.02% Brij35, 0.02 mg/mL BSA, 0.1 mM Na3VO4, 2 mM DTT, 1% DMSO.

Another assay concerns the target T2, TEC (Homo sapiens, UniProt P42680).
T2 construct: purchased Reaction Biology Corporation
T2 sequence (P42680 1-631): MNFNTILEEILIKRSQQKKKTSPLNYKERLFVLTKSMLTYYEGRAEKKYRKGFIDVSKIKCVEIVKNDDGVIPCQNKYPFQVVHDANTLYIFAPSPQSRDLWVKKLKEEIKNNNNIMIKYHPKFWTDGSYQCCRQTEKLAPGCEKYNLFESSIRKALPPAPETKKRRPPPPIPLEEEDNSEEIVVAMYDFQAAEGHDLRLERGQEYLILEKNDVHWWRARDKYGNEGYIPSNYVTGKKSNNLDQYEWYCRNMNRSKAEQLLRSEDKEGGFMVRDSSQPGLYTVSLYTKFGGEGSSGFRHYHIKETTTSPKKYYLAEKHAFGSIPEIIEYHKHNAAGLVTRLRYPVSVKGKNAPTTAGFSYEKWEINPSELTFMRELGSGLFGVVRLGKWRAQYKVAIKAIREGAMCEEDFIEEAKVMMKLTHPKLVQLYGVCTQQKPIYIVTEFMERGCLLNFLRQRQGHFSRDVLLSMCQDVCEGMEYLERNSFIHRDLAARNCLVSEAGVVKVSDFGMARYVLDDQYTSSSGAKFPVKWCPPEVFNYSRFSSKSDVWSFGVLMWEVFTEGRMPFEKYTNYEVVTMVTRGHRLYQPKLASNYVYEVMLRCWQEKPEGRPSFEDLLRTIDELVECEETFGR
Put plainly: TEC kinase profiling (BTK protocol). Type of assay: biochemical. The note with it: compound 0.3 μM; read-out: TEC @ 0.3 μM (% Inh). How it is done: as §1
Compounds of the invention were profiled in a 10 dose IC50 panel against BMX/ETK, ITK and TEC kinases, provided by Reaction Biology Corporation, applied to the BTK protocol provided in Example B1.

The test system of assay [1] is CD69+B220+ cells (mouse spleen cells). Description: B cell activation assay (IgD-stimulated CD69 on B220+ spleen cells, FACS). Format: cell-based. As to conditions: 100 nM test compound, 30 min, then IgD 3 μg/mL 4 h, read-out: CD69 @ 100 nM (% Inh). How it is done:
1 Female mouse approximately 2 months old was euthanized with CO2 and the spleen removed. The tissue was homogenized with a polished glass microscope slide. The cells were collected in 5 mL complete medium (RPMI+10% FBS+pen/strep), placed in a 15 mL falcon tube and centrifuged at 500×g for 5 min. The supernatant was discarded and the pellet was resuspended in 3 mL of ACK lysis buffer (NH4Cl 0.17M, KHCO3 10 mM, EDTA-Na2 0.1 mM, pH 7.2), incubated at 37° C. for 5 min. 2 mL complete medium was added and the mixture centrifuged at 500×g for 5 min. The supernatant was discarded and the pellet resuspended in 1 mL complete medium. The mixture was passed through a […] cell strainer and collect in 50 mL falcon tube. Enough medium was added to have a total of 10 mL. The cells were counted and seeded in 24 or 48-well plate in 1 mL complete medium at 10^6 cells/mL. The plate was placed in a 37° C. incubator for 15 min. The cells were treated for 30 min at 37° C. with 100 nM test compound dissolved in 100% DMSO. 3 μL IgD (Accurate chemical and scientific corp.) was added at a final concentration of 3 μg/mL and the mixture incubated at 37° C. for 4 h. The cells were collected in 1.5 mL eppendorf tubes, centrifuged at 500×g for 5 min and then resuspended in 100 μL of PBS+2% FBS. The following antibodies were added: α-B220 PE (pharmingen #553090), α-CD69 APC (pharmingen #60689), live/dead fixable aqua dead cell stain kit (life technologies # L34957) all at 1:300, and the mixture incubated for 15 min at 4° C. in the dark. To this was added 900 μL of PBS+2% FBS and the mixture centrifuged at 500×g for 5 min. The supernatant was removed and the pellet resuspended in 300 μL of PBS+2% FBS and mixed well. The mixture was transferred to a cytometer tube. The samples were run in the FACS Canto II cytometer and quantified by the number of CD69+B220+ cells as a percentage of the total number of B220+ alive cells.

SMILES strings stand for the structures.

T1 sequence (Q06187 whole entry): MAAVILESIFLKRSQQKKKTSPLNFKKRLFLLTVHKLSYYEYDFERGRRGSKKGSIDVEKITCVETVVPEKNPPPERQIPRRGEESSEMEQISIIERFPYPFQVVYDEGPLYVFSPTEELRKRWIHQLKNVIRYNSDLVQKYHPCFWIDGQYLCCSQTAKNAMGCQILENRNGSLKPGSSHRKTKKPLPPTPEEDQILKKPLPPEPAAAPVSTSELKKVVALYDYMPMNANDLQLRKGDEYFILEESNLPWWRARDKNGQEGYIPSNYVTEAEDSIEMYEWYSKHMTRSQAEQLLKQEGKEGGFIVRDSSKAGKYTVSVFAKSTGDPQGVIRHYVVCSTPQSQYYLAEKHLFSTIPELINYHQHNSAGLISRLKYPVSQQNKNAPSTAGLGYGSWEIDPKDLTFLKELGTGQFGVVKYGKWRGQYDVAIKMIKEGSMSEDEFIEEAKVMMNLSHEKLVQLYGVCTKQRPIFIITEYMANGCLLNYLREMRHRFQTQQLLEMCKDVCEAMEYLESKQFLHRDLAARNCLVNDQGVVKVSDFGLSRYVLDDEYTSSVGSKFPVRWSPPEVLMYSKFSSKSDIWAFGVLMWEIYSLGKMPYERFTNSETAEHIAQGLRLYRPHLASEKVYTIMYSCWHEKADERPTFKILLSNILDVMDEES

As a reminder, the IC50 is the concentration needed to halve the response being measured. Consider `C=CC(=O)N(CCn1nc(-c2cc(O)cc(F)c2)c2c(N)ncnc21)Cc1ccccc1` [Compound 5, N-(2-(4-amino-3-(3-fluoro-5-hydroxyphenyl)-1H-pyrazolo[3,4-d]pyrimidin-1-yl)ethyl)-N-benzylacrylamide], for which, on BTK, 3.7 nM corresponded to half-maximal inhibition (IC50) and the inhibition at 0.1 µM was 94%. Further, on TEC, the inhibition at 0.3 µM was found to be 48.8%. Moreover, the inhibition at 0.1 µM in assay [1] worked out at 12.5 ± 22.3%.

Take `C=CC(=O)N(CCn1nc(-c2cc(O)cc(F)c2)c2c(N)ncnc21)Cc1ccc(Cl)cc1` [Compound 12, N-{2-[4-amino-3-(3-fluoro-5-hydroxyphenyl)-1H-pyrazolo[3,4-d]pyrimidin-1-yl]ethyl}-N-[(4-chlorophenyl)methyl]prop-2-enamide]: at BTK, the midpoint of inhibition, the IC50, lay at 0.4 nM; the inhibition at 0.01 µM was 62.8%; the inhibition at 0.1 µM was 94.4%. Besides, at TEC, the inhibition at 0.3 µM came to 71.6%. Moreover, the inhibition at 0.1 µM in assay [1] was -44.7 ± 53.6%.

On to `C=CC(=O)N(CCn1nc(-c2cc(O)c(F)c(F)c2)c2c(N)ncnc21)Cc1ccc(Cl)cc1` [Compound 16, N-{2-[4-amino-3-(3,4-difluoro-5-hydroxyphenyl)-1H-pyrazolo[3,4-d]pyrimidin-1-yl]ethyl}-N-[(4-chlorophenyl)methyl]prop-2-enamide], for which, on BTK, it took 2.7 nM to reach half-maximal inhibition (IC50), the inhibition at 0.01 µM was determined as 63.4% and the inhibition at 0.1 µM is 93.8%. Also, the inhibition at 0.3 µM on TEC was 75%. Besides, the inhibition at 0.1 µM in assay [1] was -44.8 ± 29.4%.

As for `C=CC(=O)N(CCn1nc(-c2cc(O)cc(F)c2)c2c(N)ncnc21)Cc1ccccc1F` [Compound 11, N-[2-[4-amino-3-(3-fluoro-5-hydroxy-phenyl)pyrazolo[3,4-d]pyrimidin-1-yl]ethyl]-N-[(2-fluorophenyl)methyl]prop-2-enamide], on BTK, the IC50 was 7.4 nM, the inhibition at 0.1 µM stood at 93.8% and the inhibition at 1 µM turned out to be 97.2%. Moreover, at TEC, the inhibition at 0.3 µM was 68.7%. In addition, in assay [1], the inhibition at 0.1 µM is -23.7 ± 39.7%.

For the molecule `C=CC(=O)N(CCn1nc(-c2cc(O)cc(F)c2)c2c(N)ncnc21)Cc1ccc(F)cc1` [Compound 10, N-{2-[4-amino-3-(3-fluoro-5-hydroxyphenyl)-1H-pyrazolo [3,4-d]pyrimidin-1-yl]ethyl}-N-[(4-fluorophenyl)methyl]prop-2-enamide], on BTK, 3 nM corresponded to half-maximal inhibition (IC50), the inhibition at 0.1 µM came out at 95.4% and the inhibition at 1 µM is 98.3%. Besides, at TEC, the inhibition at 0.3 µM was found to be 66.1%. In addition, the inhibition at 0.1 µM in assay [1] is -23.7 ± 39.7%.

For `Nc1ncnc2c1c(-c1cc(O)cc(F)c1)nn2CCNc1ccccc1` [Compound 1, 3-(4-amino-1-(2-(phenylamino)ethyl)-1H-pyrazolo [3,4-d]pyrimidin-3-yl)-5-fluorophenol], the IC50 against BTK was 167 nM. The inhibition at 0.3 µM at TEC is -1.13%. For the same molecule, the inhibition at 0.1 µM in assay [1] turned out to be 74.5 ± 6.72%.

Consider `C=CC(=O)N(CCn1nc(-c2cc(O)cc(F)c2)c2c(N)ncnc21)c1ccccc1` [Compound 2, N-(2-(4-amino-3-(3-fluoro-5-hydroxyphenyl)-1H-pyrazolo[3,4-d]pyrimidin-1-yl)ethyl)-N-phenylacrylamide], for which the midpoint of inhibition against BTK, the IC50, lay at 3.9 nM. Besides, the figures for the inhibition at 0.1 µM (on BTK; in assay [1]) were 94.1% and -114 ± 72.2%, respectively. The inhibition at 0.3 µM on TEC worked out at 72.6%.
